# Measurements as given in article PMC8691691 (ACS Chemical Neuroscience, 2021).
# Where a chain is given by its changes, count along the chain named. Read-outs that look alike come from different tables or passages of the source.
# Legend:
# Test in all cases: [3H]glycine transport by GlyT2 mutant in COS7 cells
# Type in all cases: cell-based
# [1] = biological target: T1, GlyT2 I292C mutant (Rattus norvegicus, UniProt P58295, I292C)
# T1 construct: expressed in transfected cells; host or cells: COS7
# T1 sequence (P58295 1-799 I292C): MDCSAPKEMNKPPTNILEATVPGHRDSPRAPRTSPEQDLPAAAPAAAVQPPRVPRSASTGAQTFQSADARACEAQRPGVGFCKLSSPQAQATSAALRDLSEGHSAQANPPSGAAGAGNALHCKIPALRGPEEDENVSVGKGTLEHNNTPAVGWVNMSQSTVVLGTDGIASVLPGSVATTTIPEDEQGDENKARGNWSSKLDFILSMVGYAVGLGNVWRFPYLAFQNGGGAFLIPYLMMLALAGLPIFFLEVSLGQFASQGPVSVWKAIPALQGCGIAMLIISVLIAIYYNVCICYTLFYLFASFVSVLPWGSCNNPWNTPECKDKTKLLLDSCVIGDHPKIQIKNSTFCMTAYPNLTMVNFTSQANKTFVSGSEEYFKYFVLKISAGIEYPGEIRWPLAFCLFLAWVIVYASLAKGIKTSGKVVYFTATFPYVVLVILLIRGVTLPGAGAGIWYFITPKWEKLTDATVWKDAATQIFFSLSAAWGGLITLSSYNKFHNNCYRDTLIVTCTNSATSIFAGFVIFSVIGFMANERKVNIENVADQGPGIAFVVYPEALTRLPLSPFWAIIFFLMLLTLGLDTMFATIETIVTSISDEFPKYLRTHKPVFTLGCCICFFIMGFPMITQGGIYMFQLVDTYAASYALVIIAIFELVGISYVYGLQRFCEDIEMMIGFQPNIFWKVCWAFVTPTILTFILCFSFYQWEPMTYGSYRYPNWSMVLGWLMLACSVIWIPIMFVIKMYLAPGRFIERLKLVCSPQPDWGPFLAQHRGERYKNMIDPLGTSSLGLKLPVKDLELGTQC
# Source text: (§1) To validate the predicted interactions between the inhibitors and GlyT2, we used systematic site-directed mutagenesis to construct substitution mutants of the potential residues involved in ligand binding. […] The GlyT2 residues predicted to interact with the inhibitors through its side chain were replaced by amino acids expected to force the loss of the interaction. In the cases where the interaction occurred through the backbone, the inserted amino acid sought to alter the disposition of the substituted residue to lose the coordination.
# (§2) Substitution mutants were generated with the QuikChange II Site-Directed Mutagenesis kit (Agilent Technologies, Santa Clara, CA, USA), using rGlyT2 or rGlyT1 subcloned in pCDNA3.[47] The complete coding region of all of the constructs was sequenced to verify that only the desired mutation had been introduced. […] COS7 cells were grown and transfected using Turbofect Transfection Reagent (Thermo Fisher Scientific, Waltham, MA, USA), following the manufacturer’s protocol (2 μL reagent/μg of DNA). Cells were incubated for 48 h at 37 °C until used.
# (§3) At the end of the desired time (usually 10 min), reactions were washed and terminated by aspiration. […] A nonlinear curve fitting method was used to obtain IC50 values using Graphpad Prism software, version 6.0, Graphpad, San Diego, CA, USA.
# [2] = biological target: T2, GlyT2 T580C mutant (Rattus norvegicus, UniProt P58295, T580C)
# T2 construct: expressed in transfected cells; host or cells: COS7
# T2 sequence (P58295 1-799 T580C): T1 sequence (P58295 1-799 I292C) with C292I, T580C
# Source text: as §1, §2, §3
# [3] = biological target: T3, GlyT2 G214L mutant (Rattus norvegicus, UniProt P58295, G214L)
# T3 construct: expressed in transfected cells; host or cells: COS7
# T3 sequence (P58295 1-799 G214L): T1 sequence (P58295 1-799 I292C) with G214L, C292I
# Source text: as §1, §2, §3
SMILES,IC50 ([1]; read-out: IC50 (Table S1)) [µM],IC50 ([2]; read-out: IC50 (Table S1)) [µM],IC50 ([3]; read-out: IC50 (Table S1)) [µM],IC50 [1] [µM],IC50 [2] [µM],IC50 [3] [µM]
N[C@@H](COC(c1cccc(F)c1)c1ccccc1OCc1ccccc1)C(=O)O (stereo partly drawn) [ALX1393],0.036 ± 0.004,0.084 ± 0.009,0.038 ± 0.003,–,–,–
"COc1cc(C(=O)NCC2(N(C)C)CCCC2)cc(OC)c1OCc1ccccc1 [ORG25543, N-[[1-(dimethylamino)cyclopentyl]methyl]-3,5-dimethoxy-4-(phenylmethoxy)benzamide]",–,–,–,0.024 ± 0.003,0.096 ± 0.01,0.017 ± 0.01
